{
  "source": "patent US20140206681A1",
  "about": "“BTK INHIBITORS” (priority 2013, published 2014)",
  "data": [
    {"biological_target": "T1, BTK enzyme (recombinant full-length BTK, hBTK) (Homo sapiens, UniProt Q06187)", "T1 construct": "recombinant protein from baculovirus-transfected Sf9 cells: full-length BTK, 6HIS-tag cleaved; 6HIS (cleaved yes); made in house; host or cells: baculovirus-transfected Sf9 cells", "T1 sequence (Q06187 whole entry)": "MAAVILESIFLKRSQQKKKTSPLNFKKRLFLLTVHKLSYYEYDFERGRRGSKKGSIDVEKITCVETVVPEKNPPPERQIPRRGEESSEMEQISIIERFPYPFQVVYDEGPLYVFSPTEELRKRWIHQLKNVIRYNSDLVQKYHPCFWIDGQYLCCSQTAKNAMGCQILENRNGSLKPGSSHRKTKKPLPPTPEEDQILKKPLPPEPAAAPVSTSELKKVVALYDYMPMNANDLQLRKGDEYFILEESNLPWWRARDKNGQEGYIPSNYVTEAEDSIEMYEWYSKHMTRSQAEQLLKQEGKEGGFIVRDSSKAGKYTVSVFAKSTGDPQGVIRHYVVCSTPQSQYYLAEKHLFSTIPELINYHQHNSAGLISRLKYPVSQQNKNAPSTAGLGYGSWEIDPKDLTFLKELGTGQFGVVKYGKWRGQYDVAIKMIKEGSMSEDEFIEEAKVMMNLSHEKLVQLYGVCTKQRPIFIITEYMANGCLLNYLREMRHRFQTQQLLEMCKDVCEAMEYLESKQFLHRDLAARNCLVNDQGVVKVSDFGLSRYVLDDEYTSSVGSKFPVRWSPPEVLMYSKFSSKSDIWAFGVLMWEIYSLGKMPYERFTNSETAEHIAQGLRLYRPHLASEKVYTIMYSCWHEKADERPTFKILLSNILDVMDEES", "assay": "BTK enzyme activity assay, LANCE TR-FRET", "format": "biochemical", "details": "50 pM hBTK, 2 μM biotin-A5-peptide, 25 μM ATP; 60 min compound & enzyme incubation; read-out: IC50 BTK activity value", "units": {"IC50": "nM"}, "values": [
      {"smiles": "Nc1nccn2c([C@@H]3CC[C@H]4CCC(=O)N4C3)nc(-c3ccc(C(=O)Nc4cc(C5CC5)ccn4)c(F)c3)c12", "note": "[Example 27, 4-{8-amino-3-[(6R,8aS)-3-oxooctahydroindolizin-6-yl]imidazo[1,5-a]pyrazin-1-yl}-N-(4-cyclopropylpyridin-2-yl)-2-fluorobenzamide]", "IC50": 1.1},
      {"smiles": "Cc1cc(-c2nc([C@@H]3CC[C@H]4CCC(=O)N4C3)n3ccnc(N)c23)ccc1C(=O)Nc1cc(C2CC2)ccn1", "note": "[Example 28, 4-{8-amino-3-[(6R,8aS)-3-oxooctahydroindolizin-6-yl]imidazo[1,5-a]pyrazin-1-yl}-N-(4-cyclopropylpyridin-2-yl)-2-methylbenzamide]", "IC50": 0.64},
      {"smiles": "Nc1nccn2c([C@@H]3CC[C@H]4CCC(=O)N4C3)nc(-c3ccc(C(=O)Nc4cc(C5(F)COC5)ccn4)cc3)c12", "note": "[Example 29, 4-{8-amino-3-[(6R,8aS)-3-oxooctahydroindolizin-6-yl]imidazo[1,5-a]pyrazin-1-yl}-N-[4-(3-fluorooxetan-3-yl)pyridin-2-yl]benzamide]", "IC50": 1.9},
      {"smiles": "CC(C)(F)c1ccnc(NC(=O)c2ccc(-c3nc([C@@H]4CC[C@H]5CCC(=O)N5C4)n4ccnc(N)c34)cc2)c1", "note": "[Example 30, 4-{8-amino-3-[(6R,8aS)-3-oxooctahydroindolizin-6-yl]imidazo[1,5-a]pyrazin-1-yl}-N-[4-(1-fluoro-1-methylethyl)pyridin-2-yl]benzamide]", "IC50": 0.85},
      {"smiles": "C[C@H]1OC(=O)N2C[C@H](c3nc(-c4ccc(C(=O)Nc5cc(C6CC6)ccn5)cc4F)c4c(N)nccn34)CC[C@@H]12", "note": "[Example 32, 4-{8-amino-3-[(1R,6R,8aS)-1-methyl-3-oxohexahydro[1,3]oxazolo[3,4-a]pyridin-6-yl]imidazo[1,5-a]pyrazin-1-yl}-N-(4-cyclopropylpyridin-2-yl)-3-fluorobenzamide]", "IC50": 0.21},
      {"smiles": "N#Cc1ccnc(NC(=O)c2ccc(-c3nc([C@@H]4CC[C@H]5CCC(=O)N5C4)n4ccnc(N)c34)cc2F)c1", "note": "[Example 34, 4-{8-amino-3-[(6R,8aS)-3-oxooctahydroindolizin-6-yl]imidazo[1,5-a]pyrazin-1-yl}-N-(4-cyanopyridin-2-yl)-2-fluorobenzamide]", "IC50": 2.5},
      {"smiles": "COc1cc(C(=O)Nc2cc(C#N)ccn2)ccc1-c1nc([C@@H]2CC[C@H]3CCC(=O)N3C2)n2ccnc(N)c12", "note": "[Example 35, 4-{8-amino-3-[(6R,8aS)-3-oxooctahydroindolizin-6-yl]imidazo[1,5-a]pyrazin-1-yl}-N-(4-cyanopyridin-2-yl)-3-methoxybenzamide]", "IC50": 1.1},
      {"smiles": "Cc1cc(-c2nc([C@@H]3CC[C@H]4CCC(=O)N4C3)n3ccnc(N)c23)ccc1C(=O)Nc1cc(C#N)ccn1", "note": "[Example 36, 4-{8-amino-3-[(6R,8aS)-3-oxooctahydroindolizin-6-yl]imidazo[1,5-a]pyrazin-1-yl}-N-(4-cyanopyridin-2-yl)-2-methylbenzamide]", "IC50": 0.98},
      {"smiles": "C[C@@H]1OC(=O)N2C[C@H](c3nc(-c4ccc(C(=O)Nc5cc(C6CC6)ccn5)cc4F)c4c(N)nccn34)CC[C@@H]12", "note": "[Example 37, 4-{8-amino-3-[(1S,6R,8aS)-1-methyl-3-oxohexahydro[1,3]oxazolo[3,4-a]pyridin-6-yl]imidazo[1,5-a]pyrazin-1-yl}-N-(4-cyclopropylpyridin-2-yl)-3-fluorobenzamide]", "IC50": 0.39},
      {"smiles": "Nc1nccn2c([C@@H]3CC[C@H]4CCC(=O)N4C3)nc(-c3ccc(C(=O)Nc4cc(OC5CC5)ccn4)cc3F)c12", "note": "[Example 43, 4-{8-amino-3-[(6R,8aS)-3-oxooctahydroindolizin-6-yl]imidazo[1,5-a]pyrazin-1-yl}-N-[4-(cyclopropyloxy)pyridin-2-yl]-3-fluorobenzamide]", "IC50": 0.13},
      {"smiles": "Nc1nccn2c([C@@H]3CC[C@@H]4CNCC(=O)N4C3)nc(-c3ccc(C(=O)Nc4cc(C(F)(F)F)ccn4)cc3)c12", "note": "[Example 54, 4-{8-amino-3-[(7R,9aR)-4-oxooctahydro-2H-pyrido[1,2-a]pyrazin-7-yl]imidazo[1,5-a]pyrazin-1-yl}-N-[4-(trifluoromethyl)pyridin-2-yl]benzamide]", "IC50": 9.6},
      {"smiles": "Nc1nccn2c([C@@H]3CC[C@H]4COCCN4C3)nc(-c3ccc(C(=O)Nc4cc(C(F)(F)F)ccn4)cc3)c12", "note": "[Example 55, 4-{8-amino-3-[(7R,9aS)-octahydropyrido[2,1-c][1,4]oxazin-7-yl]imidazo[1,5-a]pyrazin-1-yl}-N-[4-(trifluoromethyl)pyridin-2-yl]benzamide]", "IC50": 0.3},
      {"smiles": "C[C@@H]1CC(=O)N2C[C@H](c3nc(-c4ccc(C(=O)Nc5cc(C(F)(F)F)ccn5)cc4)c4c(N)nccn34)CC[C@@H]12", "note": "[Example 62, 4-{8-amino-3-[(1R,6R,8aS)-1-methyl-3-oxooctahydroindolizin-6-yl]imidazo[1,5-a]pyrazin-1-yl}-N-[4-(trifluoromethyl)pyridin-2-yl]benzamide]", "IC50": 6.7},
      {"smiles": "Nc1nccn2c([C@@H]3CC[C@@H]4C[C@H](O)C(=O)N4C3)nc(-c3ccc(C(=O)Nc4cc(C(F)(F)F)ccn4)cc3)c12", "note": "[Example 75, 4-{8-amino-3-[(2S,6R,8aR)-2-hydroxy-3-oxooctahydroindolizin-6-yl]imidazo[1,5-a]pyrazin-1-yl}-N-[4-(trifluoromethyl)pyridin-2-yl]benzamide]", "IC50": 7.6},
      {"smiles": "CC(C)(C(=O)O)N1CC(=O)N2C[C@H](c3nc(-c4ccc(C(=O)Nc5cc(C(F)(F)F)ccn5)cc4)c4c(N)nccn34)CC[C@H]2C1", "note": "[Example 86, 2-((7R,9aS)-7-(8-amino-1-(4-((4-(trifluoromethyl)pyridin-2-yl)carbamoyl)phenyl)imidazo[1,5-a]pyrazin-3-yl)-4-oxohexahydro-1H-pyrido[1,2-a]pyrazin-2(6H)-yl)-2-methylpropanoic acid]", "IC50": 0.45},
      {"smiles": "CC1(C)C[C@@H]2CC[C@@H](c3nc(-c4ccc(C(=O)Nc5cc(C(F)(F)F)ccn5)cc4)c4c(N)nccn34)CN2C1=O", "note": "[Example 95, 4-{8-amino-3-[(6R,8aS)-2,2-dimethyl-3-oxooctahydroindolizin-6-yl]imidazo[1,5-a]pyrazin-1-yl}-N-[4-(trifluoromethyl)pyridin-2-yl]benzamide]", "IC50": 11.4},
      {"smiles": "CCOc1cc(C(=O)Nc2cc(C(F)(F)F)ccn2)ccc1-c1nc([C@@H]2CC[C@H]3CC(C)(C)C(=O)N3C2)n2ccnc(N)c12", "note": "[Example 113, 4-{8-amino-3-[(6R,8aS)-2,2-dimethyl-3-oxooctahydroindolizin-6-yl]imidazo[1,5-a]pyrazin-1-yl}-3-ethoxy-N-[4-(trifluoromethyl)pyridin-2-yl]benzamide]", "IC50": 0.54},
      {"smiles": "Cc1c(C(F)(F)F)ccnc1NC(=O)c1ccc(-c2nc([C@@H]3CC[C@H]4CCC(=O)N4C3)n3ccnc(N)c23)cc1", "note": "[Example 122, 4-{8-amino-3-[(6R,8aS)-3-oxooctahydroindolizin-6-yl]imidazo[1,5-a]pyrazin-1-yl}-N-[3-methyl-4-(trifluoromethyl)pyridin-2-yl]benzamide]", "IC50": 12.4},
      {"smiles": "Nc1nccn2c([C@@H]3CC[C@H]4CCC(=O)N4C3)nc(-c3ccc(C(=O)Nc4cc(C(F)(F)F)cc(C5CCC5)n4)cc3)c12", "note": "[Example 126, 4-{8-amino-3-[(6R,8aS)-3-oxooctahydroindolizin-6-yl]limidazo[1,5-a]pyrazin-1-yl}-N-[6-cyclobutyl-4-(trifluoromethyl)pyridin-2-yl]benzamide]", "IC50": 766},
      {"smiles": "CCOc1cc(C(=O)Nc2cc(C(F)(F)F)ccn2)c(F)cc1-c1nc([C@@H]2CC[C@H]3CCC(=O)N3C2)n2c(Cl)cnc(N)c12", "note": "[Example 133, 4-{8-amino-5-chloro-3-[(6R,8aS)-3-oxooctahydroindolizin-6-yl]imidazo[1,5-a]pyrazin-1-yl}-5-ethoxy-2-fluoro-N-[4-(trifluoromethyl)pyridin-2-yl]benzamide]", "IC50": 0.55},
      {"smiles": "COc1cc(C(=O)Nc2cc(C(F)(F)F)ccn2)ccc1-c1nc([C@@H]2CC[C@H]3CCC(=O)N3C2)n2c(Cl)cnc(N)c12", "note": "[Example 143, 4-{8-amino-5-chloro-3-[(6R,8aS)-3-oxooctahydroindolizin-6-yl]imidazo[1,5-a]pyrazin-1-yl}-3-methoxy-N-[4-(trifluoromethyl)pyridin-2-yl]benzamide]", "IC50": 0.22},
      {"smiles": "Nc1ncc(Cl)n2c([C@@H]3CC[C@H]4CCC(=O)N4C3)nc(-c3ccc(C(=O)Nc4cc(C(F)(F)F)ccn4)cc3OC3CC3)c12", "note": "[Example 144, 4-{8-amino-5-chloro-3-[(6R,8aS)-3-oxooctahydroindolizin-6-yl]imidazo[1,5-a]pyrazin-1-yl}-3-(cyclopropyloxy)-N-[4-(trifluoromethyl)pyridin-2-yl]benzamide]", "IC50": 0.5},
      {"smiles": "Cc1cnc(NC(=O)c2ccc(-c3nc([C@@H]4CC[C@H]5CCC(=O)N5C4)n4c(Cl)cnc(N)c34)cc2)s1", "note": "[Example 154, 4-{8-amino-5-chloro-3-[(6R,8aS)-3-oxooctahydroindolizin-6-yl]imidazo[1,5-a]pyrazin-1-yl}-N-(5-methyl-1,3-thiazol-2-yl)benzamide]", "IC50": 0.81},
      {"smiles": "Cn1nc(NC(=O)c2ccc(-c3nc([C@@H]4CC[C@H]5CCC(=O)N5C4)n4ccnc(N)c34)cc2)cc1C(F)(F)F", "note": "[Example 171, 4-{8-amino-3-[(6R,8aS)-3-oxooctahydroindolizin-6-yl]imidazo[1,5-a]pyrazin-1-yl}-N-[1-methyl-5-(trifluoromethyl)-1H-pyrazol-3-yl]benzamide]", "IC50": 0.41},
      {"smiles": "Nc1nccn2c([C@@H]3CC[C@H]4CCC(=O)N4C3)nc(-c3ccc(C(=O)Nc4ncc[nH]4)cc3)c12", "note": "[Example 172, 4-{8-amino-3-[(6R,8aS)-3-oxooctahydroindolizin-6-yl]imidazo[1,5-a]pyrazin-1-yl}-N-1H-imidazol-2-ylbenzamide]", "IC50": 50.7},
      {"smiles": "Nc1nccn2c([C@@H]3CC[C@H]4CCC(=O)N4C3)nc(-c3ccc(C(=O)Nc4cc(C(F)(F)F)on4)cc3)c12", "note": "[Example 173, 4-{8-amino-3-[(6R,8aS)-3-oxooctahydroindolizin-6-yl]imidazo[1,5-a]pyrazin-1-yl}-N-[5-(trifluoromethyl)isoxazol-3-yl]benzamide]", "IC50": 245}
    ]}
  ]
}
